Results on seven molecules are retold here after patent US20120319032A1, “Biodegradable, Frost Proof Heat-Transfer Fluid, Use Thereof In Near-Surface Geothermal Installations, And A Concentrate For Preparing Same” (priority 2010, published 2012).

Like-named read-outs stand apart in the source and are kept apart here.

The conditions of data set [1]: OECD 301A, manufacturer safety data sheet, cited from earlier work.
The conditions of data set [2]: shown in studies (Geothermics 36 (2007) 348 - 361); cited from earlier work.
For data set [3] the following is noted: 302B; 28 d; Research report 200 24 233 UBA-FB 000298; cited from earlier work.
The conditions of data set [4]: 301D; 28 d; Research report 200 24 233 UBA-FB 000298; cited from earlier work.
The conditions of data set [5]: OECD 301B, manufacturer safety data sheet, cited from earlier work.
Data set [6] in a line: Biodegradability, test method OECD 301 B. The note with it: in-house measurement. Here is the method:
The biodegradability of the inventive composition and constituents thereof is determined according to the OECD Guidelines for Testing of Chemicals 301 and 311.
The corrosion inhibitor or, if more than one corrosion inhibitor is used, all corrosion inhibitors used have good biodegradability (are “readily degradable”) according to the respectively applicable test method OECD 301 A (for water-soluble corrosion inhibitors) or OECD 301 B (for sparingly water-soluble corrosion inhibitors), each in the version dated Jul. 17, 1992. Good biodegradability is defined in point 10 of OECD 301.

With `CC(O)CO` (centres unmarked) [1,2-propylene glycol], the Degradability in data set [1] (duration not given) is greater than 70%. The Assessment of degradability result in data set [1] is on record as “good”. In addition, the Biodegradability result in data set [2] is “good”.
Turning to `c1ccc2[nH]nnc2c1` [Benzotriazole], the results for the Degradability in data set [3] and in data set [4] were 12% (28 d) and 0% (28 d), respectively.
As to `CC(C)CCCCCC(=O)O` [Inhibitor A, isononanoic acid], the Degradability entry in data set [5] (25 d) is on record as “approx. 63%”. For the same molecule, the Assessment of degradability entry in data set [5] is given as “moderately”.
Turning to `CCCCC(CC)C(=O)O` (centres unmarked) [Inhibitor B, 2-ethylhexanoic acid], the Degradability result in data set [5] (25 d) is given as “approx. 90%”. Besides, the Assessment of degradability entry in data set [5] is “good”.
Turning to `O=C(O)CCCCCCCCC(=O)O` [Inhibitor C, sebacic acid], the Degradability in data set [6] (25 d) is listed as >80% (25 d). In addition, the Assessment of degradability entry in data set [6] is “good”.
Regarding `CC(C)CCCCCC(=O)NCCCCCC(=O)O` [Inhibitor X], in data set [5] (15 d), the Degradability was >90% (15 d). Also, the Assessment of degradability result in data set [5] is on record as “good”.
As for `OCCO` [ethylene glycol], the Biodegradability entry in data set [2] was “good”.
